Assay results: patent publication US20110015068A1, “Herbicidal Compositions Comprising Pyroxasulfone V” (BASF SE, priority 2008, published 2011)

Assays:
Assay type in all cases: in vivo
Setaria faberii [1] = experiment: post-emergence greenhouse test, SETFA; settings: 12.5 g ai/ha, 20 DAT, Table 4
Text: (§1) For the post-emergence treatment, the test plants were first grown to a height of 3 to 20 cm, depending on the plant habit, and only then treated. Here, the herbicidal compositions were suspended or emulsified in water as distribution medium and sprayed using finely distributing nozzles.
(§2) The respective herbicides A and/or safener were formulated as 10% by weight strength suspension concentrate and introduced to the spray liquor with the amount of solvent system used for applying the active compound. Herbicide B and/or safener were used as commercially available formulations and introduced to the spray liquor with the amount of solvent system used for applying the active compound. In the examples, the solvent used was water.
(§3) The test period extended over 21 days. During this time, the plants were tended, and their response to the treatments with active compound was evaluated.
(§4) The evaluation for the damage caused by the chemical compositions was carried out using a scale from 0 to 100%, compared to the untreated control plants. Here, 0 means no damage and 100 means complete destruction of the plants.

Chenopodium album [2] = experiment: post-emergence greenhouse test, CHEAL
Text: as §1, §2, §3, §4

Lolium multiflorum = experiment: post-emergence greenhouse test, LOLMU; settings: 12.5 g ai/ha, 20 DAT, Table 4
Text: as §1, §2, §3, §4

Digitaria sanguinalis = experiment: post-emergence greenhouse test, DIGSA; settings: 3.13 g ai/ha, 20 DAT, Table 4
Text: as §1, §2, §3, §4

Galium aparine [3] = experiment: post-emergence greenhouse test, GALAP
Text: as §1, §2, §3, §4

Matricaria inermis [4] = experiment: post-emergence greenhouse test, MATIN; settings: 6.25 g ai/ha, 20 DAT, Table 4
Text: as §1, §2, §3, §4

Solanum nigrum = experiment: post-emergence greenhouse test, SOLNI; settings: 13 g ai/ha
Text: as §1, §2, §3, §4

Kochia scoparia [5] = experiment: pre-emergence greenhouse test, KCHSC; settings: 12.5 g ai/ha
Text: (§5) For the pre-emergence treatment, directly after sowing the active compounds, which had been suspended or emulsified in water, were applied by means of finely distributed nozzles. The containers were irrigated gently to promote germination and growth and subsequently covered with transparent plastic hoods until plant had rooted. This cover caused uniform germination of the tests plants, unless this was adversely affected by active compounds.
as §2, §3, §4

Alopecurus myosuroides [6] = experiment: post-emergence greenhouse test, ALOMY
Text: as §1, §2, §3, §4

Alopecurus myosuroides [7] = experiment: pre-emergence greenhouse test, ALOMY; settings: 12.5 g ai/ha
Text: as §5, §2, §3, §4

Galium aparine [8] = experiment: pre-emergence greenhouse test, GALAP; settings: 3.13 g ai/ha
Text: as §5, §2, §3, §4

Setaria faberii [9] = experiment: pre-emergence greenhouse test, SETFA
Text: as §5, §2, §3, §4

Bromus inermis = experiment: pre-emergence greenhouse test, BROIN; settings: 3.13 g ai/ha
Text: as §5, §2, §3, §4

Sorghum halepense [10] = experiment: post-emergence greenhouse test, SORHA; settings: 1.6 g ai/ha
Text: as §1, §2, §3, §4

Matricaria inermis [11] = experiment: pre-emergence greenhouse test, MATIN; settings: 6.25 g ai/ha
Text: as §5, §2, §3, §4

Sorghum halepense [12] = experiment: pre-emergence greenhouse test, SORHA; settings: 3.13 g ai/ha
Text: as §5, §2, §3, §4

Xanthium strumarium = experiment: post-emergence greenhouse test, XANST
Text: as §1, §2, §3, §4

Chenopodium album [13] = experiment: pre-emergence greenhouse test, CHEAL; settings: 3.13 g ai/ha
Text: as §5, §2, §3, §4

Echinochloa crus-galli = experiment: post-emergence greenhouse test, ECHCG
Text: as §1, §2, §3, §4

Setaria italica [14] = experiment: pre-emergence greenhouse test, SETIT; settings: 25 g ai/ha
Text: as §5, §2, §3, §4

Kochia scoparia [15] = experiment: post-emergence greenhouse test, KCHSC; settings: 6.25 g ai/ha
Text: as §1, §2, §3, §4

Setaria lutescens = experiment: post-emergence greenhouse test, SETLU; settings: 1.6 g ai/ha
Text: as §1, §2, §3, §4

Setaria italica [16] = experiment: post-emergence greenhouse test, SETIT
Text: as §1, §2, §3, §4

Ipomoea purpurea = experiment: pre-emergence greenhouse test, PHBPU
Text: as §5, §2, §3, §4

Ambrosia artemisifolia = experiment: pre-emergence greenhouse test, AMBEL; settings: 12.5 g ai/ha
Text: as §5, §2, §3, §4

Polygonum convolvulus = experiment: post-emergence greenhouse test, POLCO
Text: as §1, §2, §3, §4

C#CCN1C(=O)C(F)(F)Oc2cc(F)c(-n3c(=O)n(C)c(=S)n(C)c3=O)cc21 [compound V-1]
35%: observed activity in % destruction (Digitaria sanguinalis)
70%: observed activity in % destruction (Setaria faberii [1])
30%: observed activity in % destruction (Galium aparine [3]; 3.13 g ai/ha, 20 DAT, Table 4)
60%: observed activity in % destruction (Chenopodium album [2]; 6.25 g ai/ha, 20 DAT, Table 4)
85%: observed activity in % destruction (Lolium multiflorum)
90%: observed activity in % destruction (Matricaria inermis [4])

CC(C)N(C)S(=O)(=O)NC(=O)c1cc(-n2c(=O)cc(C(F)(F)F)n(C)c2=O)c(F)cc1Cl [saflufenacil]
0%: observed % activity (Alopecurus myosuroides [6]; 1.6 g ai/ha, 8 DAT) | observed % activity (Alopecurus myosuroides [6]; 1.6 g ai/ha, 20 DAT) | observed % activity (Alopecurus myosuroides [6]; 6.25 g ai/ha, 20 DAT) | observed % activity (Setaria faberii [9]; 6.25 g ai/ha, 8 DAT) | observed % activity (Bromus inermis; 8 DAT) | observed % activity (Bromus inermis; 20 DAT) | observed % activity (Sorghum halepense [12]; 8 DAT) | observed % activity (Sorghum halepense [12]; 20 DAT) | observed % activity (Echinochloa crus-galli; 1.6 g ai/ha, 20 DAT) | observed % activity (Echinochloa crus-galli; 6.25 g ai/ha, 20 DAT) | observed % activity (Echinochloa crus-galli; 13 g ai/ha, 20 DAT)
98%: observed % activity (Matricaria inermis [11]; 20 DAT) | observed % activity (Polygonum convolvulus; 13 g ai/ha, 20 DAT)
10%: observed % activity (Echinochloa crus-galli; 1.6 g ai/ha, 8 DAT) | observed % activity (Echinochloa crus-galli; 6.25 g ai/ha, 8 DAT) | observed % activity (Setaria lutescens; 20 DAT)
40%: observed % activity (Galium aparine [8]; 8 DAT) | observed % activity (Galium aparine [8]; 20 DAT) | observed % activity (Setaria italica [14]; 8 DAT)
25%: observed % activity (Galium aparine [3]; 3.1 g ai/ha, 8 DAT)
20%: observed % activity (Alopecurus myosuroides [6]; 6.25 g ai/ha, 8 DAT) | observed % activity (Setaria faberii [9]; 12.5 g ai/ha, 8 DAT) | observed % activity (Sorghum halepense [10]; 8 DAT) | observed % activity (Galium aparine [3]; 1.6 g ai/ha, 20 DAT) | observed % activity (Galium aparine [3]; 3.1 g ai/ha, 20 DAT) | observed % activity (Setaria italica [16]; 6.25 g ai/ha, 20 DAT)
75%: observed % activity (Kochia scoparia [5]; 8 DAT) | observed % activity (Xanthium strumarium; 3.1 g ai/ha, 20 DAT) | observed % activity (Chenopodium album [13]; 8 DAT)
60%: observed % activity (Chenopodium album [13]; 20 DAT) | observed % activity (Kochia scoparia [15]; 8 DAT)
35%: observed % activity (Alopecurus myosuroides [6]; 13 g ai/ha, 8 DAT) | observed % activity (Chenopodium album [2]; 6.25 g ai/ha, 8 DAT) | observed % activity (Chenopodium album [2]; 6.25 g ai/ha, 20 DAT) | observed % activity (Chenopodium album [2]; 13 g ai/ha, 20 DAT) | observed % activity (Setaria faberii [9]; 6.25 g ai/ha, 20 DAT) | observed % activity (Setaria faberii [9]; 12.5 g ai/ha, 20 DAT) | observed % activity (Sorghum halepense [10]; 20 DAT) | observed % activity (Xanthium strumarium; 1.6 g ai/ha, 8 DAT) | observed % activity (Galium aparine [3]; 6.25 g ai/ha, 8 DAT) | observed % activity (Polygonum convolvulus; 1.6 g ai/ha, 8 DAT)
95%: observed % activity (Matricaria inermis [11]; 8 DAT) | observed % activity (Polygonum convolvulus; 13 g ai/ha, 8 DAT)
55%: observed % activity (Setaria italica [14]; 20 DAT)
70%: observed % activity (Xanthium strumarium; 3.1 g ai/ha, 8 DAT) | observed % activity (Xanthium strumarium; 6.25 g ai/ha, 8 DAT) | observed % activity (Galium aparine [3]; 13 g ai/ha, 20 DAT) | observed % activity (Ambrosia artemisifolia; 8 DAT)
30%: observed % activity (Alopecurus myosuroides [7]; 8 DAT) | observed % activity (Alopecurus myosuroides [7]; 20 DAT) | observed % activity (Galium aparine [3]; 6.25 g ai/ha, 20 DAT) | observed % activity (Kochia scoparia [15]; 20 DAT) | observed % activity (Setaria lutescens; 8 DAT) | observed % activity (Setaria italica [16]; 3.1 g ai/ha, 8 DAT) | observed % activity (Setaria italica [16]; 6.25 g ai/ha, 8 DAT) | observed % activity (Polygonum convolvulus; 1.6 g ai/ha, 20 DAT)
85%: observed % activity (Solanum nigrum; 8 DAT) | observed % activity (Solanum nigrum; 20 DAT)
50%: observed % activity (Ipomoea purpurea; 3.13 g ai/ha, 20 DAT)
80%: observed % activity (Kochia scoparia [5]; 20 DAT) | observed % activity (Xanthium strumarium; 6.25 g ai/ha, 20 DAT) | observed % activity (Galium aparine [3]; 13 g ai/ha, 8 DAT) | observed % activity (Ipomoea purpurea; 6.25 g ai/ha, 8 DAT) | observed % activity (Ipomoea purpurea; 6.25 g ai/ha, 20 DAT) | observed % activity (Ambrosia artemisifolia; 20 DAT)
45%: observed % activity (Chenopodium album [2]; 13 g ai/ha, 8 DAT) | observed % activity (Xanthium strumarium; 1.6 g ai/ha, 20 DAT) | observed % activity (Ipomoea purpurea; 3.13 g ai/ha, 8 DAT)
15%: observed % activity (Alopecurus myosuroides [6]; 13 g ai/ha, 20 DAT) | observed % activity (Galium aparine [3]; 1.6 g ai/ha, 8 DAT) | observed % activity (Echinochloa crus-galli; 13 g ai/ha, 8 DAT) | observed % activity (Setaria italica [16]; 3.1 g ai/ha, 20 DAT)
